1 molecule from paper PMC7134596 (Febs Letters, 2004) can be followed below.

In the assay the target is SARS‐CoV M^pro (Severe acute respiratory syndrome-related coronavirus, UniProt P0C6X7). In words: biochemical.

Usually Ki stands for the equilibrium dissociation constant of an inhibitor or competing ligand from its target. The low end stands for tighter binding, the high end for weaker binding. As for `CC1=C(C(=O)OCCc2ccccc2)C(c2ccccc2[N+](=O)[O-])C2=C(CCCC2=O)N1` (stereo not shown) [MP576, 3‐quinolinecarboxylic acid, 1,4,5,6,7,8‐hexahydro‐2‐methyl‐4‐(2‐nitrophenyl)‐5‐oxo‐, 2‐phenylethyl ester], the Ki was 2900 ± 300 nM.
